Experimental data as given in paper PMC2632775 (Nuclear medicine and biology, 2008).
Like-named read-outs stand apart in the source and are kept apart here.

What was measured:
[1] = rats, avg ± SD, cited from earlier work
[2] = biological target: T1, VMAT2 binding sites in the pancreas (Rattus norvegicus, UniProt Q01827); conditions: rats, 60 min after tracer injection, ± SD, cited from earlier work
[3] = biological target: T1, VMAT2 binding sites in the pancreas; test: Blocking studies of pancreatic uptake in rats; assay type: in vivo; conditions: for Pancreas uptake, Pretreatment / Blood uptake, Pretreatment: n=5, ± SD
[4] = biological target: VMAT2 binding sites of beta cells in the pancreas (Rattus norvegicus, UniProt Q01827); conditions: rats, PET, post iv injection
[5] = rats, iv
VMAT2 = VMAT2 (Rattus norvegicus, UniProt Q01827); test: In vitro autoradiography using rat brain sections; assay type: binding; conditions: preliminary, data not shown
[6] = pretreatment of (+)2 3.5 mg/kg iv 5 min prior
[7] = 60 min after tracer injection, no pretreatment, n=4, ± SD
[8] = 60 min after tracer injection, pretreatment of (+)2 3.5 mg/kg iv 5 min prior
[9] = 30 min after tracer injection, no pretreatment, n=4, ± SD
[10] = 30 min after tracer injection, pretreatment of (+)DTBZ 3.3 mg/kg iv 5 min prior

T1 sequence (Q01827 whole entry): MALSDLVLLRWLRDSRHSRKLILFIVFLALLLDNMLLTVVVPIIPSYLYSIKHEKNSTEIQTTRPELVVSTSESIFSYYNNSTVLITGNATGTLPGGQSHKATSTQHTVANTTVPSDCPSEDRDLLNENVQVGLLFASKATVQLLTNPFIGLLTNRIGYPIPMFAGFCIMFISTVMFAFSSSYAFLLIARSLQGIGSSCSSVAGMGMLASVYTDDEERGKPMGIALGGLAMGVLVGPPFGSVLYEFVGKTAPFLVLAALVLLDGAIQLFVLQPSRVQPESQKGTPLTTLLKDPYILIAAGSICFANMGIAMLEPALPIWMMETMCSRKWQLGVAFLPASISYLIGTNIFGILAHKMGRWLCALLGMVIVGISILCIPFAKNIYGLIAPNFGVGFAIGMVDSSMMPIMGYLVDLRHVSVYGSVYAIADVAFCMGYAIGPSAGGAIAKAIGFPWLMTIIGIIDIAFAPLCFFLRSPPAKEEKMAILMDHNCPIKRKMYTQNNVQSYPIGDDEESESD
Chain of VMAT2 binding sites of beta cells in the pancreas (Q01827 whole entry): as above
Chain of VMAT2 (Q01827 whole entry): as above

COc1cc2c(cc1OCCC[18F])CCN1CC(CC(C)C)C(O)CC21 (stereo not drawn) [[^18F](+)2, [^18F](−)-2-Hydroyxl-3-isobutyl-9-(3-fluoropropoxy)-10-methoxy-2,3,4,6,7, 11b-hexahydro-1H-pyrido[2,1-a]isoquinoline]
Blood uptake ([1]; 2 min): 0.26 ± 0.03 %ID/g | Brain uptake ([1]; 2 min): 0.71 ± 0.05 %ID/g | Heart uptake ([1]; 2 min): 0.71 ± 0.07 %ID/g | Kidney uptake ([1]; 2 min): 2.10 ± 0.17 %ID/g | Liver uptake ([1]; 2 min): 3.53 ± 0.56 %ID/g | Lung uptake ([1]; 2 min): 0.94 ± 0.04 %ID/g | Muscle uptake ([1]; 2 min): 0.14 ± 0.03 %ID/g | Pancreas uptake ([1]; 2 min): 2.51 ± 0.22 %ID/g | Skin uptake ([1]; 2 min): 0.23 ± 0.05 %ID/g | Spleen uptake ([1]; 2 min): 1.46 ± 0.15 %ID/g | Blood uptake ([1]; 30 min): 0.23 ± 0.06 %ID/g | Brain uptake ([1]; 30 min): 0.62 ± 0.08 %ID/g | Heart uptake ([1]; 30 min): 0.41 ± 0.03 %ID/g | Kidney uptake ([1]; 30 min): 1.06 ± 0.06 %ID/g | Liver uptake ([1]; 30 min): 2.82 ± 0.24 %ID/g | Lung uptake ([1]; 30 min): 0.69 ± 0.03 %ID/g | Muscle uptake ([1]; 30 min): 0.17 ± 0.02 %ID/g | Pancreas uptake ([1]; 30 min): 5.50 ± 0.97 %ID/g | Skin uptake ([1]; 30 min): 0.28 ± 0.01 %ID/g | Spleen uptake ([1]; 30 min): 1.03 ± 0.18 %ID/g | Blood uptake ([1]; 60 min): 0.18 ± 0.02 %ID/g | Brain uptake ([1]; 60 min): 0.42 ± 0.04 %ID/g | Heart uptake ([1]; 60 min): 0.30 ± 0.10 %ID/g | Kidney uptake ([1]; 60 min): 0.84 ± 0.09 %ID/g | Liver uptake ([1]; 60 min): 2.47 ± 0.30 %ID/g | Lung uptake ([1]; 60 min): 0.54 ± 0.14 %ID/g | Muscle uptake ([1]; 60 min): 0.13 ± 0.01 %ID/g | Pancreas uptake ([1]; 60 min): 4.98 ± 0.24 %ID/g | Skin uptake ([1]; 60 min): 0.23 ± 0.04 %ID/g | Spleen uptake ([1]; 60 min): 0.83 ± 0.18 %ID/g | Blood uptake ([1]; 120 min): 0.12 ± 0.03 %ID/g | Brain uptake ([1]; 120 min): 0.35 ± 0.02 %ID/g | Heart uptake ([1]; 120 min): 0.22 ± 0.01 %ID/g | Kidney uptake ([1]; 120 min): 0.55 ± 0.06 %ID/g | Liver uptake ([1]; 120 min): 1.47 ± 0.13 %ID/g | Lung uptake ([1]; 120 min): 0.35 ± 0.03 %ID/g | Muscle uptake ([1]; 120 min): 0.10 ± 0.01 %ID/g | Pancreas uptake ([1]; 120 min): 2.76 ± 0.61 %ID/g | Skin uptake ([1]; 120 min): 0.16 ± 0.02 %ID/g | Spleen uptake ([1]; 120 min): 0.48 ± 0.04 %ID/g | Blood uptake, Control ([2]; no pretreatment): 0.20 ± 0.02 %ID/g | Pancreas uptake, Control ([2]; no pretreatment): 4.93 ± 0.49 %ID/g | Blood uptake, Pretreatment [2, 6]: 0.26 ± 0.04 %ID/g | Pancreas uptake, Pretreatment [2, 6]: 1.11 ± 0.07 %ID/g | Pancreas uptake, Control [3, 7]: 2.19 %ID/g | Pancreas uptake, Pretreatment [3, 8]: 0.32 %ID/g

COc1cc2c(cc1OCCC[18F])CCN1CC(CC(C)C)C(C3CO3)CC21 (stereo not drawn) [[^18F](+)4] [[^18F](+)-2-Oxiranyl-3-isobutyl-9-(3-fluoropropoxy)-10-methoxy-2,3,4,6,7, 11b-hexahydro-1H-pyrido[2,1-a]isoquinoline]
Time of peak uptake and retention in the pancreas [4]: around 60 min | Pancreas uptake, Pretreatment [2, 6]: 1.11 %ID/g | Pancreas uptake, Control [3, 7]: 2.19 ± 0.37 %ID/g | Blood uptake, Pretreatment [3, 8]: 0.06 ± 0.01 %ID/g | Pancreas uptake, Pretreatment [3, 8]: 0.32 ± 0.07 %ID/g | Blood uptake ([5]; 2 min, n=3): 0.27 %ID/g | Bone uptake ([5]; 2 min, n=3): 0.29 %ID/g | Brain uptake ([5]; 2 min, n=3): 0.95 %ID/g | Heart uptake ([5]; 2 min, n=3): 0.48 %ID/g | Kidney uptake ([5]; 2 min, n=3): 4.60 %ID/g | Liver uptake ([5]; 2 min, n=3): 3.28 %ID/g | Lung uptake ([5]; 2 min, n=3): 0.79 %ID/g | Muscle uptake ([5]; 2 min, n=3): 1.00 %ID/g | Pancreas uptake ([5]; 2 min, n=3): 1.64 %ID/g | Skin uptake ([5]; 2 min, n=3): 0.21 %ID/g | Spleen uptake ([5]; 2 min, n=3): 1.36 %ID/g | Blood uptake ([5]; 30 min, n=3): 0.15 %ID/g | Brain uptake ([5]; 30 min, n=3): 0.30 %ID/g | Heart uptake ([5]; 30 min, n=3): 0.11 %ID/g | Kidney uptake ([5]; 30 min, n=3): 3.59 %ID/g | Liver uptake ([5]; 30 min, n=3): 1.02 %ID/g | Lung uptake ([5]; 30 min, n=3): 0.48 %ID/g | Pancreas uptake ([5]; 30 min, n=3): 1.96 %ID/g | Skin uptake ([5]; 30 min, n=3): 0.14 %ID/g | Spleen uptake ([5]; 30 min, n=3): 0.26 %ID/g | Blood uptake ([5]; 60 min, n=7): 0.10 %ID/g | Bone uptake ([5]; 60 min, n=7): 0.23 %ID/g | Brain uptake ([5]; 60 min, n=7): 0.32 %ID/g | Heart uptake ([5]; 60 min, n=7): 0.07 %ID/g | Kidney uptake ([5]; 60 min, n=7): 2.21 %ID/g | Liver uptake ([5]; 60 min, n=7): 0.67 %ID/g | Lung uptake ([5]; 60 min, n=7): 0.14 %ID/g | Muscle uptake ([5]; 60 min, n=7): 0.04 %ID/g | Pancreas uptake ([5]; 60 min, n=7): 2.68 %ID/g | Skin uptake ([5]; 60 min, n=7): 0.09 %ID/g | Spleen uptake ([5]; 60 min, n=7): 0.16 %ID/g | Blood uptake ([5]; 120 min, n=7): 0.04 %ID/g | Bone uptake ([5]; 120 min, n=7): 0.22 %ID/g | Brain uptake ([5]; 120 min, n=7): 0.24 %ID/g | Heart uptake ([5]; 120 min, n=7): 0.02 %ID/g | Kidney uptake ([5]; 120 min, n=7): 1.58 %ID/g | Liver uptake ([5]; 120 min, n=7): 0.54 %ID/g | Lung uptake ([5]; 120 min, n=7): 0.05 %ID/g | Muscle uptake ([5]; 120 min, n=7): 0.02 %ID/g | Pancreas uptake ([5]; 120 min, n=7): 1.33 %ID/g | Skin uptake ([5]; 120 min, n=7): 0.04 %ID/g | Spleen uptake ([5]; 120 min, n=7): 0.08 %ID/g | Blood uptake ([5]; 240 min, n=4): 0.02 %ID/g | Bone uptake ([5]; 240 min, n=4): 0.27 %ID/g | Brain uptake ([5]; 240 min, n=4): 0.28 %ID/g | Heart uptake ([5]; 240 min, n=4): 0.01 %ID/g | Kidney uptake ([5]; 240 min, n=4): 2.01 %ID/g | Liver uptake ([5]; 240 min, n=4): 0.54 %ID/g | Lung uptake ([5]; 240 min, n=4): 0.03 %ID/g | Muscle uptake ([5]; 240 min, n=4): 0.01 %ID/g | Pancreas uptake ([5]; 240 min, n=4): 0.81 %ID/g | Skin uptake ([5]; 240 min, n=4): 0.02 %ID/g | Spleen uptake ([5]; 240 min, n=4): 0.04 %ID/g

COc1cc2c(cc1OCCC[18F])CCN1CC(CC(C)C)C(C3CO3)CC21 (stereo not drawn) [[^18F](−)4] [[^18F](−)-2-Oxiranyl-3-isobutyl-9-(3-fluoropropoxy)-10-methoxy-2,3,4,6,7, 11b-hexahydro-1H-pyrido[2,1-a]isoquinoline]
Labeling of rat brain sections (in vitro autoradiography) (VMAT2): no specific binding in any brain region | Displaceability of pancreas uptake ([3]; 30 min, iv pretreatment of (+)DTBZ 3.3 mg/kg 5 min prior): non-displaceable | Blood uptake, Control [3, 9]: 0.07 ± 0.00 %ID/g | Pancreas uptake, Control [3, 9]: 0.22 ± 0.02 %ID/g | Blood uptake, Pretreatment [3, 10]: 0.12 ± 0.03 %ID/g | Pancreas uptake, Pretreatment [3, 10]: 0.22 ± 0.04 %ID/g
